The text below walks through data of patent publication US20120046332A1, “COMPOSITIONS AND METHODS FOR TREATING CORNEAL HAZE” (ALLERGAN, INC., priority 2010, published 2012).

The subject of assay [1] is adult skin fibroblasts. The experiment in a line: myofibroblast transformation, anti-α-SMA immunocytochemistry / morphology. It counts as cell-based, human. To be noted: co-treatment with TGF-β1 in serum-free medium; EP2 agonist 100 nM, EP4 agonist 10 nM. The text has this:
FIGS. 1A-D show immunohistochemical staining of human adult skin fibroblasts treated with vehicle (FIG. 1A), transforming growth factor beta-1 (TGF-β1; FIG. 1B), TGF-β1+ prostaglandin receptor subtype-4 (EP4) agonist (FIG. 1C), or TGF-β1+ prostaglandin receptor subtype 2 (EP2) agonist (FIG. 1D). TGF-β1 induced transformation of myofibroblasts, which stained green with anti-alpha-smooth muscle actin (α-SMA) immunocytochemistry.
(§1) To perform the myofibroblast transformation assay, adult skin fibroblasts were cultured until 70% confluent, washed with phosphate buffered saline (PBS), and then starved in serum-free medium for 48 hours. Post starvation, cells were treated with TGF-β1 at 2 ng/ml alone or in combination with Compound V—100 nM, Compound II—10 nM or vehicle for 96 hrs in a fresh serum-free medium (TGF-beta1 from Sigma Aldrich, USA). Cell lysates were collected at the end of the study and Western blot was performed to monitor the expression of alpha-smooth muscle actin (α-SMA), the marker of myofibroblasts.
To perform the myofibroblast transformation assay, adult skin fibroblasts were cultured until 70% confluent, washed with PBS, and then starved in serum-free medium for 48 hrs. Post starvation, cells were treated with TGF-beta1 at 2 ng/ml alone or in combination with Compound III—100 nM, Compound I—10 nM or vehicle for 96 hrs in a fresh serum-free medium (TGF-β1 from Sigma Aldrich, USA). Cell lysates were collected at the end of the study and Western blot was performed to monitor the expression of alpha-smooth muscle actin (α-SMA), the marker of myofibroblasts.
Normal skin fibroblasts are slim and spindle-shaped without detectable α-SMA (marker of myofibroblasts), 6 days post culturing in a serum-free medium (FIGS. 1-2).

In assay [2] the test system is adult skin fibroblasts. The assay is described as follows: myofibroblast transformation assay, Western blot of α-SMA expression. It is filed as cell-based, human. To be noted: co-treatment with TGF-β1 2 ng/ml for 96 hrs in serum-free medium; EP2 agonist 100 nM, EP4 agonist 10 nM. On the procedure: as §1
Cells were washed with cold PBS three times and lysed with a lysis buffer containing phosphatase inhibitors and proteinase inhibitors (Invitrogen, San Diego, Calif.). Protein level in lysates was quantified (bicinchoninic acid (BCA) protein assay kit, Pierce, USA). For Western blot, an equal amount of protein was applied at each lane, and subjected to electrophoresis. […] Fluorescence signals associated with target proteins were detected upon exposure to fluorescence-sensitive films (Cell signaling Technology, Inc., Berverly, Mass.). […] Beta-actin, a house-keeping gene, was also quantified on the same membrane as an internal control for loading amount. […]
(In western blotting, separated proteins are transferred to a membrane and probed.)

As for `O=C(O)CCCCCCN1C(=O)CC[C@@H]1/C=C/C(O)Cc1ccccc1` (stereo partly drawn) [Compound III], in assay [1], the “cell size (TGF-β1-induced increase)” value was “but not cell size” and the “α-SMA positive stress fibers” value is recorded as “significantly reduced”. In addition, the “reduction of TGF-β1-induced α-SMA expression (Western blot)” value in assay [2] was “approximately 50%”.
`CC1(C)C(=O)[C@H](C/C=C\CCCC(=O)O)[C@@H](/C=C/[C@H](O)CCc2sc3ccccc3c2Cl)[C@@H]1O` [Compound I]: in assay [1], the “cell size (TGF-β1-induced increase)” value is “but not cell size” and the “α-SMA positive stress fibers” value is on record as “significantly reduced”. The “reduction of TGF-β1-induced α-SMA expression (Western blot)” value in assay [2] is listed as approximately 75%.
